# In patent publication US5043332A, “Novel 11β-substituted -19-nor-steriods” (priority 1981, dated 1991):
# Key:
# [1] = target: T1, Mineralcorticoidal receptor of kidneys of the rat (Rattus norvegicus, UniProt P22199); test: Mineralcorticoidal receptor binding (displacement of tritiated aldosterone); details: second table; incubation 24 H at 0° C.
# T1 construct: from tissue; host or cells: rat kidney, 105,000 g supernatant (adrenalectomized male Sprague-Dawley rats)
# T1 sequence (P22199 1-981): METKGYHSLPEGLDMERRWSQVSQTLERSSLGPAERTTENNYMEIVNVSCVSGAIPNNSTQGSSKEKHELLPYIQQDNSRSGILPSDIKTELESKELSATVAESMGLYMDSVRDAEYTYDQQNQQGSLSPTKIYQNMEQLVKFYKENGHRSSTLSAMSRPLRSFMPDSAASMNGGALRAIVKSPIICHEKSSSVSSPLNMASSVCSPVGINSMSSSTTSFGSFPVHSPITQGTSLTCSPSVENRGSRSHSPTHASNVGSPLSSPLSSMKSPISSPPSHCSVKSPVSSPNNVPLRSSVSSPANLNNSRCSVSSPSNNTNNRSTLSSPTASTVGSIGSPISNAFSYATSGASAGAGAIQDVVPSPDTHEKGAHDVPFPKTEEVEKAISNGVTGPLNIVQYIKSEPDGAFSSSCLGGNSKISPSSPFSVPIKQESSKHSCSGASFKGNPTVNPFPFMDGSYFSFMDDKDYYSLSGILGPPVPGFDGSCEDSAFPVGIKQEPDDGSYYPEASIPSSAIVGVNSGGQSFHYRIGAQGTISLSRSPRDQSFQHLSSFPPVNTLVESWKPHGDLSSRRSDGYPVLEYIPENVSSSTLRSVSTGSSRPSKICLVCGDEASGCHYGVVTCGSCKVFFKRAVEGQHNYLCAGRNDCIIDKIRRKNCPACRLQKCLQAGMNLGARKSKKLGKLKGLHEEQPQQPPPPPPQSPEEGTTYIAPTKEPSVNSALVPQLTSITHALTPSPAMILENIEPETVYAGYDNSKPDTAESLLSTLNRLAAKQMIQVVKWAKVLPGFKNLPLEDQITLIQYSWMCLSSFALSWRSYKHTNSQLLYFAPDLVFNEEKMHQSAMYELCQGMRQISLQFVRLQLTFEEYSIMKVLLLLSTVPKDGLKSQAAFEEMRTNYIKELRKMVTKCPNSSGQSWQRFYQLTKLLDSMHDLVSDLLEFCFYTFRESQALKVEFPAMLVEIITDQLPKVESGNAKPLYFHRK
# Experimental: A. Mineralcorticoidal receptor of kidneys of the rat
# Male Sprague-Dawley EOPS rats weighing 140 to 160 g surrenalectomized 4 to 8 days previously were killed and their kidneys were perfused in situ with 50 ml of a buffer (10 mM of Tris 0.25M of Saccharose and sufficient hydrochloric acid for a pH of 7.4). The kidneys were then removed, decapsulated and homogenized at 0° C. with a polytetrafluoroethylene-glass Potter (1 g of tissue per 3 ml of buffer). The homogenate was centrifuged for 10 minutes at 800 g at 9° C.
# After elimination of the fixation of tritiated aldosterone with glucocorticoid receptor, 21-methyl-Δ^1,4,6 -pregnatriene-20-yne-11β,17β-diol-3-one fixed only with the glucocorticoid receptor was added to the supernatant at a final concentration of 10^-6 M. The suprenatant was ultracentrifuged at 105,000 g for 60 minutes and 0° C. and aliquoits of the resulting surnageant were incubated at 0° C. with a constant concentration (T) of tritiated aldosterone in the presence of increasing concentrations (0-2500×10^-9 M) of cold aldosterone or the cold test product. After a time (t) of incubation, the concentration of tied tritiated aldosterone (B) was measured by the technique of adsoprtion on carbon dextran.
# (§1) The calculation of the relative affinity of […] (ARL) was identical for all of the above receptor tests. One traced the following two curves: the percentage of tied tritiated hormone B/T as a function of the logarithm of the cold hormone concentration and B/T as a function of the logarithm of the concentration of the cold test product. One determined the line of the equation. [formula]
# (§2) The intersection of the I50 line and the curves permits one to determine the concentrations of the cold hormone of the reference (CH) and the cold test compound (CX) which inhibit by 50% the tieing of tritiated hormone with the receptor. The relative affinity of tieing (ARL) of the test product was determined by the equation: [formula]
# [2] = target: T2, Progestogen receptor of the uterus of rabbits (Oryctolagus cuniculus, UniProt P06186); test: Progestogen receptor binding (displacement of tritiated product R); set-up: species or system rabbit; details: for affinity for progestogen receptors (in words): conclusion; for relative affinity of tieing (ARL), Progestogen: second table
# T2 construct: The uterus was removed, weighed and homogenized at 0° C; from tissue; host or cells: rabbit uterus, 105,000 g supernatant (estradiol-primed immature rabbits)
# T2 sequence (P06186 1-930): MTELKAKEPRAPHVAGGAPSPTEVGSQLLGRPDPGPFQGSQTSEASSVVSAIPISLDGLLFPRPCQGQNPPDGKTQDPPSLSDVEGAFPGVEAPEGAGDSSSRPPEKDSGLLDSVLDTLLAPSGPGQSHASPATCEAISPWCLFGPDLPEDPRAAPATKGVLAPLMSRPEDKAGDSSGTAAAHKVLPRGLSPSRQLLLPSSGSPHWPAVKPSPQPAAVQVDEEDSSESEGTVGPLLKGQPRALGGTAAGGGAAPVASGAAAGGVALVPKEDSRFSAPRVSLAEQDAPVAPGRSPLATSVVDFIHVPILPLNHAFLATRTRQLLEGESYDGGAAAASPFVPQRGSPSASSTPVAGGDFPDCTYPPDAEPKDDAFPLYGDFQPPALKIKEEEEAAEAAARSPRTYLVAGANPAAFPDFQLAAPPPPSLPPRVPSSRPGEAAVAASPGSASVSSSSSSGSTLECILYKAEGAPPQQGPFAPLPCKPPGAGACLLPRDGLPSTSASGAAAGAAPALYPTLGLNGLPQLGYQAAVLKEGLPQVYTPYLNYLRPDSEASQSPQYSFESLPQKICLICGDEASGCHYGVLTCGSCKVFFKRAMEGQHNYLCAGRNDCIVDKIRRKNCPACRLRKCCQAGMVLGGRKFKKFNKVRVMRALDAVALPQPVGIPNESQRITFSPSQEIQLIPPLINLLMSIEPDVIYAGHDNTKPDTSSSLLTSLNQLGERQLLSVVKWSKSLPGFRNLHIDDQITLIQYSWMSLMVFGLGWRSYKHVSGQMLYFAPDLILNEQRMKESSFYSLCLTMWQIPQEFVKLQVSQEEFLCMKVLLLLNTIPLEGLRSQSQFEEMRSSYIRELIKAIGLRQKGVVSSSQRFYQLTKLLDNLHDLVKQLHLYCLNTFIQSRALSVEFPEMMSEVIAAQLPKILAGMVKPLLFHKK
# Experimental: C. Progestogen receptor of the uterus of rabbits
# Immature rabbits weighing about 1 kg received a cutaneous application of 25 μg of estradiol and the animals were killed 5 days later. The uterus was removed, weighed and homogenized at 0° C. with a polytetrafluoroethylene-glass Potter, in a buffered TS solution [Tris 10. mM, 0.25M of saccharose, HCl-pH of 7.4] with 1 g of tissue per 50 ml of TS. […] The concentration of tied tritiated R (B) was then measured for each incubate by the technique of adsoprtion on carbon-dextran.
# as §1, §2
SMILES,"relative affinity of tieing (ARL), Mineralocorticoid [1]",affinity for progestogen receptors (in words) [2],"relative affinity of tieing (ARL), Progestogen ([2]; incubation 2 H at 0° C.)","relative affinity of tieing (ARL), Progestogen ([2]; incubation 24 H at 0° C.)"
"CN(C)c1ccc([C@H]2C[C@@]3(C)[C@@H](CC[C@@]3(O)C#CCl)[C@@H]3CCC4=CC(=O)CCC4=C32)cc1 [Example 25, 11β-[4-(N,N-dimethylamino)-phenyl]-21-chloro-19-nor-17α-Δ^4,9-pregnadiene-20-yne-17β-ol-3-one]",0,very remarkable affinity,78,467
"C[C@]12C[C@H](c3ccc([N+](C)(C)[O-])cc3)C3=C4CCC(=O)C=C4CC[C@H]3[C@@H]1CC[C@@]2(O)C#CCl [Example 26, N-oxide of 11β-[4-(N,N-dimethylamino)-phenyl]-21-chloro-19-nor-17α-Δ^4,9-pregnadiene-20-yne-17β-ol-3-one]",0,,"6,3","8,3"
"C[C@]12C[C@H](c3ccc([N+](C)(C)[O-])cc3)[C@]34O[C@]35CCC(=O)C=C5CC[C@H]4[C@@H]1CC[C@@]2(O)C#CCl [Example 27, N-oxide of 11β-[4-(N,N-dimethylamino)-phenyl]-9α,10α-epoxy-21-chloro-19-nor-17α-Δ^4-pregnene-20-yne-17β-ol-3-one]",0,,"0,6","0,4"
"C#C[C@]1(O)CC[C@H]2[C@@H]3CCC4=CC(=O)CCC4=C3[C@@H](c3ccc(N(C)C)cc3)C[C@@]21C [Example 32, 11β-[4-(N,N-dimethylamino)-phenyl]-17α-ethynyl-Δ^4,9-estradiene-17β-ol-3-one]",0,very remarkable affinity,81,351
"C=CC[C@]1(O)CC[C@H]2[C@@H]3CCC4=CC(=O)CCC4=C3[C@@H](c3ccc(N(C)C)cc3)C[C@@]21C [Example 37, 11β-[4-(N,N-dimethylamino)-phenyl]-17α-(prop-2-enyl)-Δ^4,9-estradien-17β-ol-3-one]","0,3",very remarkable affinity,175,843
"CN(C)c1ccc([C@H]2C[C@@]3(C)[C@@H](CC[C@@]3(O)C#C[Si](C)(C)C)[C@@H]3CCC4=CC(=O)CCC4=C32)cc1 [Example 44, 11β-[4-(N,N-dimethylamino)-phenyl]-21-trimethylsilyl-19-nor-17α-Δ^4,9-pregnadiene-20-yne-17β-ol-3-one]",0,,"15,2",38
